The test system of experiment [1] is Bleomycin-induced pulmonary fibrosis. The experiment is described as follows: Bleomycin-induced pulmonary fibrosis in mice (14 d). Also on record: concentration or dose not given beside the values. The class given is in vivo. The source says: The method for inducing pulmonary fibrosis in mice is described in Current Protocols in Pharmacology: 5.46.1, entitled “Mouse Models of Bleomycin-induced Pulmonary Fibrosis”. In order to induce pulmonary fibrosis, 6-8 week old C57B1/6 mice or Wistar rats are instilled once oropharyngeally with ˜1.5 U/kg of bleomycin sulfate (Calbiochem, Billerica, Mass.). Briefly, for oropharyngeal administration of bleomycin, mice or rats are anesthetized with isofluorane and then suspended on its back at a˜60 degree angle on an inclined surface with a rubber band running under the upper incisors. The airway is opened while securing the tongue with one arm of padded forceps and bleomycin is administered into the back of the oral cavity with a syringe. The animal's tongue and mouth were held open until the liquid disappeared from the oral cavity. The animal was then returned to its cage and monitored until fully recovered from the anesthesia. The study is terminated on day 14-28 for oropharyngeally administered bleomycin in mice and rats. All animals are euthanized at the termination of the studies by cervical dislocation for gross necropsy, and blood collected by cardiac puncture. The lungs from each animal are dissected from the animal and weighed. The BAL cells and fluid are collected by lavaging the lung twice with 0.5 ml Hanks Balanced Salt Solution (HBSS; VWR, Radnor, Pa.). After collection of BAL cells and fluid, lungs are dissected and removed from each animal. Whole lungs are inflated with 10% NBF and then fixed in 10% NBF for histology. Severity of fibrosis in the lungs is evaluated using a modified Ashcroft score (Hubner, Biotechniques, 2008) and subjective fibrosis scores. Lung sections were graded by averaging 5 microscopic fields at 20× on an Ashcroft scale as follows: Grade 0=normal lung; Grade 1=minimally detectable thickening of alveolar walls; Grade 2=Mild thickening of alveolar walls. Grade 3=moderate contiguous thickening of walls with fibrous nodules; Grade 4=Thickened septae and confluent fibrotic masses that total less than 10% of microscopic field. Grade 5=increased fibrosis with definite damage to lung structure and formation of fibrous bands or small fibrous masses between 10 and 50% of microscopic field; Grade 6=Large contiguous fibrotic masses consolidating more than 50% of microscopic field. Grade 7=severe distortion of structure and large fibrous areas; Grade 8=total fibrous obliteration of lung within microscopic field. Each slide was examined at 20× magnification and the score for 5 separate representative fields was averaged for each animal. Subjective scores (H&E and Trichrome-stained slides) were evaluated at 2× magnification for an overall assessment of pathologic change. A score of 0=no detectible findings to 5=complete involvement of consolidation. Scores in each group were averaged and standard error was calculated using Excel 2010. Dense, organized inflammatory exudates were scored as fibrosis. Other tissues were evaluated microscopically and scored routinely.

Another experiment has as its target T1, Human Calpain 1/NS1 (Homo sapiens, UniProt P07384).
T1 sequence (P07384 1-714): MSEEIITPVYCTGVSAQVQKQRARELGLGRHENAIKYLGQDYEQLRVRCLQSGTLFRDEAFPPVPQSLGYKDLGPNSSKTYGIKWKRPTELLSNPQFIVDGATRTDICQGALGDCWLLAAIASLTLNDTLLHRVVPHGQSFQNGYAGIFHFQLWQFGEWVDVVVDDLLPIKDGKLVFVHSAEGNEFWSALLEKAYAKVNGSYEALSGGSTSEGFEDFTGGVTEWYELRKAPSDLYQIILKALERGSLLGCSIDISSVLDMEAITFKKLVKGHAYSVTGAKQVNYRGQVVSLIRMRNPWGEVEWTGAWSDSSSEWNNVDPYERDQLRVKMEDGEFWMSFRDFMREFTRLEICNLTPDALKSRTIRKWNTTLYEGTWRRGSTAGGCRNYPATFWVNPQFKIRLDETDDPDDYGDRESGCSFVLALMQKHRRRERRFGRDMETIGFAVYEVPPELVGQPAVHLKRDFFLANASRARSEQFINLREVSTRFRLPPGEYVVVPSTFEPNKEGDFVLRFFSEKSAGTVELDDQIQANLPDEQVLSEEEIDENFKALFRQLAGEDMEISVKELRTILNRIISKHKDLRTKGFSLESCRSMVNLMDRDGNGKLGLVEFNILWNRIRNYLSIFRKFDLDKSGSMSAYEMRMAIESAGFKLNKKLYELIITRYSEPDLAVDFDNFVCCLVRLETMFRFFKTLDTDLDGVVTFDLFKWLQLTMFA
T1 sequence (P04632 1-268 partner): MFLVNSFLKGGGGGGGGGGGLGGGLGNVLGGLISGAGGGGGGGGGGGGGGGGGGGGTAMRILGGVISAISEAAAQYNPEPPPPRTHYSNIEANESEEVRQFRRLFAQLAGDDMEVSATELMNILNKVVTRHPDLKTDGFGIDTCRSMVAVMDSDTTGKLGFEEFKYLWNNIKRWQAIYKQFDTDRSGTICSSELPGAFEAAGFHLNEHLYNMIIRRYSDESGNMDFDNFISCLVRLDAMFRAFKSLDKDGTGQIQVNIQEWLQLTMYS
Nature of the experiment: Calpain inhibition continuous fluorescence (FRET) assay, Human Calpain 1/NS1. Format: biochemical. The gist of the method: (§1)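 Fluorescence increase from the cleaved 5-FAM/QXL 520 substrate, read at 490/520 nm, gave activity. Calcium was supplied with the substrate to activate the enzyme in situ after a 25C enzyme-inhibitor preincubation, and IC50s were fit from initial slopes.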

The next experiment addresses T2, Human Calpain 2/NS1 (Homo sapiens, UniProt P17655).
T2 sequence (P17655 1-700): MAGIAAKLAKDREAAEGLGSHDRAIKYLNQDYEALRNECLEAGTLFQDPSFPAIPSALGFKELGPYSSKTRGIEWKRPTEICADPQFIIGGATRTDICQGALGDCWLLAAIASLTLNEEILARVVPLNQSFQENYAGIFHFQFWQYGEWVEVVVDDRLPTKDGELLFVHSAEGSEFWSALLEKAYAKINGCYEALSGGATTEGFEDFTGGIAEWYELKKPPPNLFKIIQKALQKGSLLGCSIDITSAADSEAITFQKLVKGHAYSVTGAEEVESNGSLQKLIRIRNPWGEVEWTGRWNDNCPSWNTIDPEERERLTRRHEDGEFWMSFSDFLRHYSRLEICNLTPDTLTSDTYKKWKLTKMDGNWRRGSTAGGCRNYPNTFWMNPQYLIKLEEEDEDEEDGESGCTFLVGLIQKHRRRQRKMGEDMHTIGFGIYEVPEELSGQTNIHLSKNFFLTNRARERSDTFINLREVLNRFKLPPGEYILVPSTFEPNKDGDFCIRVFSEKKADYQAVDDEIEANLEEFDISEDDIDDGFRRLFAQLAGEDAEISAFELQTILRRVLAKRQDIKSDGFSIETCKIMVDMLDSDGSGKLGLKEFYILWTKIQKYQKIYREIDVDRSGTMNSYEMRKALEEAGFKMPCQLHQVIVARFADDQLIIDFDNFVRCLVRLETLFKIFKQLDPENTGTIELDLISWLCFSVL
T2 sequence (P04632 1-268 partner): T1 sequence (P04632 1-268 partner)
Nature of the experiment: Calpain inhibition continuous fluorescence (FRET) assay, Human Calpain 2/NS1. The class given is biochemical. Summed up: as §1

Another experiment deals with T3, Human Calpain 9/NS1 (Homo sapiens, UniProt O14815).
T3 sequence (O14815 1-690): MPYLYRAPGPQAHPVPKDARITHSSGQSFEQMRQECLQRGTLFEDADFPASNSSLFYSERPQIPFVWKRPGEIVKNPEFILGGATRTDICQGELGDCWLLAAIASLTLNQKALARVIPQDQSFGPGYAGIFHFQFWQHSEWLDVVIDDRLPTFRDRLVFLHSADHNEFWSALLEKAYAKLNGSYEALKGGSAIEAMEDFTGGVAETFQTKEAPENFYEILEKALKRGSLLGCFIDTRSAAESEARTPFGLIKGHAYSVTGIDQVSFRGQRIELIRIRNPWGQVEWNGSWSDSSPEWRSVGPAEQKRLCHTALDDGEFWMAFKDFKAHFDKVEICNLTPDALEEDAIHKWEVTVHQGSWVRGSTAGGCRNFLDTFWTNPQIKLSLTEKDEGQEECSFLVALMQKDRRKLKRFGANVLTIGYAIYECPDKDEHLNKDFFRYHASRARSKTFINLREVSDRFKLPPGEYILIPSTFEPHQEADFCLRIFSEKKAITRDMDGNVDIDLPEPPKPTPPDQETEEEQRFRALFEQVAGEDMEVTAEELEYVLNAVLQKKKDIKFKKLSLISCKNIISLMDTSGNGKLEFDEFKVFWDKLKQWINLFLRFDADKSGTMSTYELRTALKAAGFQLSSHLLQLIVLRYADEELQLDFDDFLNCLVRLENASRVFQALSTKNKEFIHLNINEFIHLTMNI
T3 sequence (P04632 1-268 partner): T1 sequence (P04632 1-268 partner)
Nature of the experiment: Calpain inhibition continuous fluorescence (FRET) assay, Human Calpain 9/NS1. Format: biochemical. Summed up:
as §1

Experiment [2] relates to Calpain activity in SH-SY5Y cells (SBDP-150). The experiment is described as follows: SH-SY5Y Spectrin western blot assay (SBDP-150 breakdown product, A23187-induced). The class given is cell-based. As to conditions: Homo sapiens, read-out: SH-SY5Y Spectrin IC50. In general terms: A western blot detects proteins with antibodies after separation by electrophoresis.
Experiment [3] deals with Calpain activity in SH-SY5Y cells. Nature of the experiment: SH-SY5Y + AMC fluorescence assay (Suc-LLVY-AMC substrate). Format: cell-based.
Setting [4] is: read-out: Human Calpain 1/NS1 IC50.
The mark [5] stands for this setting: read-out: Human Calpain 2/NS1 IC50.
[6] abbreviates: read-out: Human Calpain 9/NS1 IC50.
[7] abbreviates: SH-SY5Y cells, A23187-induced SBDP-150, western blot.

Here are results for 8 molecules from patent US11339130B1 (Blade Therapeutics, Inc., priority 2016, dated 2022).

Where two headings read alike, the source gives them in different places.

Regarding `Cc1ccc(=O)n(-c2ccccc2)c1` [pirfenidone, reference compound], in experiment [1], the “% reduction compared to vehicle” value is recorded as −14%.

Consider `Cc1cc(C(=O)N[C@@H](Cc2ccccc2)C(=O)C(N)=O)n(-c2ccc(CNC(=O)Oc3ccccc3)cc2)n1` [Compound 162, Phenyl (S)-(4-(5-((4-amino-3,4-dioxo-1-phenylbutan-2-yl)carbamoyl)-3-methyl-1H-pyrazol-1-yl)benzyl)carbamate], for which the IC50 against Human Calpain 1/NS1 is below 3 µM; at Human Calpain 2/NS1, below 3 µM; against Human Calpain 9/NS1, below 3 µM; in experiment [2] (SH-SY5Y), above 25 µM; in experiment [3] (read-out: SH-SY5Y + AMC IC50, Column E), above 25 µM.

Regarding `Cn1cc(C(=O)NC(Cc2ccccc2)C(=O)C(N)=O)c(-c2ccc3ncccc3c2)n1` (stereo not drawn) [Compound 593, N-(4-amino-3,4-dioxo-1-phenylbutan-2-yl)-1-methyl-3-(quinolin-6-yl)-1H-pyrazole-4-carboxamide], the IC50 on Human Calpain 1/NS1 (setting [4]) was below 3 µM; on Human Calpain 2/NS1 (setting [5]), below 3 µM; at Human Calpain 9/NS1 (setting [6]), below 3 µM; in experiment [2] (setting [7]) it was above 25 µM; in experiment [3] (read-out: SH-SY5Y + AMC IC50), above 25 µM.

With `NC(=O)C(=O)[C@H](Cc1ccccc1)NC(=O)c1ocnc1-c1ccccc1` [Compound 303, (S)—N-(4-amino-3,4-dioxo-1-phenylbutan-2-yl)-4-phenyloxazole-5-carboxamide], the IC50 at Human Calpain 1/NS1 (Column A, read-out: Human Calpain 1/NS1 IC50) was below 3 µM; on Human Calpain 2/NS1 (Column B, read-out: Human Calpain 2/NS1 IC50), below 3 µM; on Human Calpain 9/NS1 (Column C, read-out: Human Calpain 9/NS1 IC50), below 3 µM; in experiment [2] (Column D, SH-SY5Y cells, A23187-induced SBDP-150) it was 10 to 25 µM; in experiment [3] (Column E, read-out: SH-SY5Y + AMC IC50), below 10 µM.

For the molecule `NC(=O)C(=O)C(Cc1ccccc1)NC(=O)c1cn(C2CCCC2)nc1-c1ccccc1` (stereo not drawn) [Compound 525, N-(4-amino-3,4-dioxo-1-phenylbutan-2-yl)-1-cyclopentyl-3-phenyl-1H-pyrazole-4-carboxamide], the IC50 was below 3 µM on Human Calpain 1/NS1 (setting [4]); below 3 µM on Human Calpain 2/NS1 (setting [5]); below 3 µM at Human Calpain 9/NS1 (setting [6]); above 25 µM in experiment [2] (setting [7]); below 10 µM in experiment [3] (read-out: SH-SY5Y + AMC IC50).

Take `Cc1cc(C(=O)NC(Cc2ccccc2)C(=O)C(=O)NC2CC2)n(-c2ccccn2)n1` (stereo not drawn) [Compound 456, N-(4-(cyclopropylamino)-3,4-dioxo-1-phenylbutan-2-yl)-3-methyl-1-(pyridin-2-yl)-1H-pyrazole-5-carboxamide]: the IC50 at Human Calpain 1/NS1 (setting [4]) was below 3 µM; on Human Calpain 2/NS1 (setting [5]) it was below 3 µM; at Human Calpain 9/NS1 (setting [6]), below 3 µM; in experiment [2] (setting [7]), above 25 µM; in experiment [3] (read-out: SH-SY5Y + AMC IC50), below 10 µM.

As for `Cn1cc(C(=O)NC(C=O)Cc2ccccc2)c(-c2ccccc2F)n1` (stereo not drawn) [Compound 520, 3-(2-Fluorophenyl)-1-methyl-N-(1-oxo-3-phenylpropan-2-yl)-1H-pyrazole-4-carboxamide], the IC50 on Human Calpain 1/NS1 (setting [4]) is below 3 µM; on Human Calpain 2/NS1 (setting [5]), below 3 µM; at Human Calpain 9/NS1 (setting [6]), below 3 µM; in experiment [2] (setting [7]) it was above 25 µM; in experiment [3] (read-out: SH-SY5Y + AMC IC50) it was 10 to 25 µM.

`Cc1nc(-c2ccccc2)c(C(=O)N[C@@H](Cc2ccc(O)cc2)C(=O)C(N)=O)o1` [Compound 354]: the IC50 is below 3 µM at Human Calpain 1/NS1 (setting [4]); below 3 µM at Human Calpain 2/NS1 (setting [5]); below 3 µM on Human Calpain 9/NS1 (setting [6]); below 10 µM in experiment [2] (setting [7]); below 10 µM in experiment [3] (read-out: SH-SY5Y + AMC IC50).
